The values below come from patent US7132504B2, “Hepatitis C virus inhibitors” (Bristol-Myers Squibb Company, priority 2003, dated 2006).

Molecules are shown by their SMILES.

Test [1] deals with T1, HCV NS3/4A protease complex (UniProt P27958, C1454S/C1711G, species not given).
T1 construct: fused on or other part: Three-lysine solubilising tail at the C-terminus of NS4A
The test is described as follows: Recombinant HCV NS3/4A protease complex FRET peptide assay (strain not stated). The class given is biochemical. The settings on record: NS3/4A protease enzyme assay, read-out: Activity Range IC50. The text has this: The purpose of this in vitro assay was to measure the inhibition of HCV NS3 protease complexes, derived from the BMS strain, H77 strain or J416S strain, as described below, by compounds of the present invention. This assay provides an indication of how effective compounds of the present invention would be in inhibiting HCV proteolytic activity.
Serum from an HCV-infected patient was obtained from Dr. T. Wright, San Francisco Hospital. An engineered full-length cDNA (compliment deoxyribonucleic acid) template of the HCV genome (BMS strain) was constructed from DNA fragments obtained by reverse transcription-PCR (RT-PCR) of serum RNA (ribonucleic acid) and using primers selected on the basis of homology between other genotype 1a strains. From the determination of the entire genome sequence, a genotype 1a was assigned to the HCV isolate according to the classification of Simmonds et al. (See P Simmonds, K A Rose, S Graham, S W Chan, F McOmish, B C Dow, E A Follett, P L Yap and H Marsden, J. Clin. Microbiol., 31(6), 1493–1503 (1993)). […] The infectious clones, H77 (1a genotype) and J4L6S (1b genotype) were obtained from R. Purcell (NIH) and the sequences are published in Genbank (AAB67036, see Yanagi, M., Purcell, R. H., Emerson, S. U. and Bukh, J. Proc. Natl. Acad. Sci. U.S.A. 94(16), 8738–8743 (1997); AF054247, see Yanagi, M., St Claire, M., Shapiro, M., Emerson, S. U., Purcell, R. H. and Bukh, J, Virology 244 (1), 161–172. (1998)).
The H77 and J4L6S strains were used for production of recombinant NS3/4A protease complexes. DNA encoding the recombinant HCV NS3/4A protease complex (amino acids 1027 to 1711) for these strains were manipulated as described by P. Gallinari et al. (see Gallinari P, Paolini C, Brennan D, Nardi C, Steinkuhler C, De Francesco R. Biochemistry. 38(17):5620–32, (1999)). Briefly, a three-lysine solubilizing tail was added at the 3′-end of the NS4A coding region. The cysteine in the P1 position of the NS4A–NS4B cleavage site (amino acid 1711) was changed to a glycine to avoid the proteolytic cleavage of the lysine tag. Furthermore, a cysteine to serine mutation was introduced by PCR at amino acid position 1454 to prevent the autolytic cleavage in the NS3 helicase domain. The variant DNA fragment was cloned in the pET21b bacterial expression vector (Novagen) and the NS3/4A complex was expressed in Escherichia. coli strain BL21 (DE3) (Invitrogen) following the protocol described by P. Gallinari et al. (see Gallinari P, Brennan D, Nardi C, Brunetti M, Tomei L, Steinkuhler C, De Francesco R., J Virol. 72(8):6758–69 (1998)) with modifications. Briefly, the NS3/4A protease complex expression was induced with 0.5 millimolar (mM) Isopropyl β-D-1-thiogalactopyranoside (IPTG) for 22 hours (h) at 20° C. A typical fermentation (1 Liter (L)) yielded approximately 10 grams (g) of wet cell paste. The cells were resuspended in lysis buffer (10 mL/g) consisting of 25 mM N-(2-Hydroxyethyl)Piperazine-N′-(2-Ethane Sulfonic acid) (HEPES), pH 7.5, 20% glycerol, 500 mM Sodium Chloride (NaCl), 0.5% Triton X-100, 1 microgram/milliliter (“μg/mL”) lysozyme, 5 mM Magnesium Chloride (MgCl2), 1 μg/ml Dnasel, 5 mM β-Mercaptoethanol (βME), Protease inhibitor—Ethylenediamine Tetraacetic acid (EDTA) free (Roche), homogenized and incubated for 20 minutes (min) at 4° C. The homogenate was sonicated and clarified by ultra-centrifugation at 235000 g for 1 h at 4° C. Imidazole was added to the supernatant to a final concentration of 15 mM and the pH adjusted to 8.0. The crude protein extract was loaded on a Nickel—Nitrilotriacetic acid (Ni-NTA) column pre-equilibrated with buffer B (25 mM HEPES, pH 8.0, 20% glycerol, 500 mM NaCl, 0.5% Triton X-100, 15 mM imidazole, 5 mM βME). The sample was loaded at a flow rate of 1 mL/min. The column was washed with 15 column volumes of buffer C (same as buffer B except with 0.2% Triton X-100). The protein was eluted with 5 column volumes of buffer D (same as buffer C except with 200 mM Imidazole). […]

The test system of test [2] is HCV replicon in Huh7 cells. In words: HCV replicon cell-based assay (FRET). Also noted: species or system HCV strain 1b. The settings on record: Hepatitis C virus, Huh-7, 96 h, 4 days, read-out: Activity Range EC50. The text has this:
An HCV replicon whole cell system was established as described by Lohmann V, Korner F, Koch J, Herian U, Theilmann L, Bartenschlager R., Science 285(5424):110–3 (1999). This system enabled us to evaluate the effects of our HCV Protease compounds on HCV RNA replication. Briefly, using the HCV strain 1b sequence described in the Lohmann paper (Assession number:AJ238799), an HCV cDNA was generated encoding the 5′ internal ribosome entry site (IRES), the neomycin resistance gene, the EMCV (encephalomyocarditis viurs)-IRES and the HCV nonstructural proteins, NS3–NS5B, and 3′ non-translated region (NTR). In vitro transcripts of the cDNA were transfected into the human hepatoma cell line, Huh7. […] Resulting cell lines were characterized for positive and negative strand RNA production and protein production over time.
Huh7 cells, constitutively expressing the HCV replicon, were grown in Dulbecco's Modified Eagle Media (DMEM) containing 10% Fetal calf serum (FCS) and 1 mg/ml G418 (Gibco-BRL). Cells were seeded the night before (1.5×10^4 cells/well) in 96-well tissue-culture sterile plates. Compound and no compound controls were prepared in DMEM containing 4% FCS, 1:100 Penicillin/Streptomysin, 1:100 L-glutamine and 5% DMSO in the dilution plate (0.5% DMSO final concentration in the assay). Compound/DMSO mixes were added to the cells and incubated for 4 days at 37° C. After 4 days, plates were rinsed thoroughly with Phosphate-Buffered Saline (PBS) (3 times 150 μl). The cells were lysed with 25 μl of a lysis assay reagent containing the FRET peptide (RET S1, as described for the in vitro enzyme assay). The lysis assay reagent was made from 5× cell Luciferase cell culture lysis reagent (Promega #E153A) diluted to 1× with distilled water, NaCl added to 150 mM final, the FRET peptide diluted to 10 μM final from a 2 mM stock in 100% DMSO. The plate was then placed into the Cytofluor 4000 instrument which had been set to 340 nm excitation/490 nm emission, automatic mode for 21 cycles and the plate read in a kinetic mode. EC50 determinations were carried out as described for the IC50 determinations. […]
The percentage inhibition was calculated using the formula below: […]
The values were graphed and analyzed using XLFit to obtain the EC50 value.

With `C=CC1CC1(NC(=O)[C@@H]1C[C@@H](Oc2cc(-c3ccccc3)nc3cc(OC)ccc23)CN1C(=O)[C@@H](NC(=O)OC)C(C)(C)C)C(=O)NS(=O)(=O)N1CCCC1` (mixture of isomers) [Compound 8], the concentration for half-maximal inhibition (IC50) in test [1] is less than 150 nM. Further, the concentration giving a half-maximal response (EC50) in test [2] was 150 to 1500 nM. On the same counts, the results for `C=CC1C[C@]1(NC(=O)[C@@H]1C[C@@H](Oc2cc(-c3ccccc3)nc3cc(OC)ccc23)CN1C(=O)[C@@H](NC(=O)OC)C(C)(C)C)C(=O)NS(=O)(=O)N(C)CC` (some centres unmarked) [Compound 1] are less than 150 nM and less than 150 nM.

`C=CC1C[C@]1(NC(=O)[C@@H]1C[C@@H](Oc2cc(-c3ccccc3)nc3cc(OC)ccc23)CN1C(=O)[C@@H](NC(=O)OC)C(C)(C)C)C(=O)NS(=O)(=O)N(C)OC` (some centres unmarked) [Compound 2]: the 50% inhibitory concentration (IC50) in test [1] is less than 150 nM. Besides, in test [2], the EC50 is 150 to 1500 nM. For `C=CC1C[C@]1(NC(=O)[C@@H]1C[C@@H](Oc2cc(-c3ccccc3)nc3cc(OC)ccc23)CN1C(=O)[C@@H](NC(=O)OC)C(C)(C)C)C(=O)NS(=O)(=O)N(C)C` (some centres unmarked) [Compound 3], in that order: less than 150 nM and less than 150 nM. On the same counts, the results for `C=CC1C[C@]1(NC(=O)[C@@H]1C[C@@H](Oc2cc(-c3ccccc3)nc3cc(OC)ccc23)CN1C(=O)[C@@H](NC(=O)OC)C(C)(C)C)C(=O)NS(=O)(=O)N1CCC1` (some centres unmarked) [Compound 4] are less than 150 nM and 150 to 1500 nM. In the case of `C=CC1C[C@]1(NC(=O)[C@@H]1C[C@@H](Oc2cc(-c3ccccc3)nc3cc(OC)ccc23)CN1C(=O)[C@@H](NC(=O)OC)C(C)(C)C)C(=O)NS(=O)(=O)N(C)c1ccccc1` (some centres unmarked) [Compound 5], the concentration for half-maximal inhibition (IC50) in test [1] is less than 150 nM. In addition, the EC50 in test [2] was less than 150 nM.

In the case of `C=CC1C[C@]1(NC(=O)[C@@H]1C[C@@H](Oc2cc(-c3ccccc3)nc3cc(OC)ccc23)CN1C(=O)[C@@H](NC(=O)OC)C(C)(C)C)C(=O)NS(=O)(=O)N1CCCC1` (some centres unmarked) [Compound 6], the 50% inhibitory concentration (IC50) in test [1] was less than 150 nM. In addition, the EC50 in test [2] fell in the range of 150 to 1500 nM. On the same counts, the results for `C=CC1C[C@]1(NC(=O)[C@@H]1C[C@@H](Oc2cc(-c3ccccc3)nc3cc(OC)ccc23)CN1C(=O)[C@@H](NC(=O)OC)C(C)(C)C)C(=O)NS(=O)(=O)N(C)C(C)C` (some centres unmarked) [Compound 7] are less than 150 nM and 150 to 1500 nM. Consider `C=CC1C[C@]1(NC(=O)[C@@H]1C[C@@H](Oc2cc(-c3ccccc3)nc3cc(OC)ccc23)CN1C(=O)[C@@H](NC(=O)OC)C(C)(C)C)C(=O)NS(=O)(=O)N1CCCCC1` (some centres unmarked) [Compound 10], for which, in test [1], the IC50 is less than 150 nM. The concentration giving a half-maximal response (EC50) in test [2] lay in the range of 150 to 1500 nM. Turning to `C=CC1C[C@]1(NC(=O)[C@@H]1C[C@@H](Oc2cc(-c3ccccc3)nc3cc(OC)ccc23)CN1C(=O)[C@@H](NC(=O)OC)C(C)(C)C)C(=O)NS(=O)(=O)N1CCCCO1` (some centres unmarked) [Compound 11], in test [1], the 50% inhibitory concentration (IC50) fell in the range of 150 to 1500 nM. In test [2], the EC50 is greater than 1500 nM. In the case of `C=CC1C[C@]1(NC(=O)[C@@H]1C[C@@H](Oc2cc(-c3ccccc3)nc3cc(OC)ccc23)CN1C(=O)[C@@H](NC(=O)OC)C(C)(C)C)C(=O)NS(=O)(=O)N1CCOCC1` (some centres unmarked) [Compound 12], in test [1], the 50% inhibitory concentration (IC50) lay in the range of 150 to 1500 nM. Regarding `C=CC1C[C@]1(NC(=O)[C@@H]1C[C@@H](Oc2cc(-c3ccccc3)nc3cc(OC)ccc23)CN1C(=O)[C@@H](NC(=O)OC)C(C)(C)C)C(=O)NS(=O)(=O)N1CCN(C)CC1` (some centres unmarked) [Compound 13], the half-maximal inhibitory concentration (IC50) in test [1] was 150 to 1500 nM. The EC50 in test [2] is greater than 1500 nM. In the case of `C=CC1C[C@]1(NC(=O)[C@@H]1C[C@@H](Oc2cc(-c3ccccc3)nc3cc(OC)ccc23)CN1C(=O)[C@@H](NC(=O)OC(C)(C)C)C(C)(C)C)C(=O)NS(=O)(=O)N(C)CC` (some centres unmarked) [Compound 14], in test [1], the 50% inhibitory concentration (IC50) is less than 150 nM. For the same compound, the EC50 in test [2] is less than 150 nM. For the compound `C=CC1C[C@]1(NC(=O)[C@@H]1C[C@@H](Oc2cc(-c3ccccc3)nc3cc(OC)ccc23)CN1C(=O)[C@@H](NC(=O)OC(C)(C)C)C(C)(C)C)C(=O)NS(=O)(=O)N(C)C` (some centres unmarked) [Compound 15], in test [1], the IC50 is less than 150 nM. Besides, the EC50 in test [2] is less than 150 nM. On to `C=CC1C[C@]1(NC(=O)[C@@H]1C[C@@H](Oc2cc(-c3ccccc3)nc3cc(OC)ccc23)CN1C(=O)[C@@H](NC(=O)OC(C)(C)C)C(C)(C)C)C(=O)NS(=O)(=O)N(C)c1ccccc1` (some centres unmarked) [Compound 16], for which the concentration for half-maximal inhibition (IC50) in test [1] is less than 150 nM. Also, in test [2], the EC50 is less than 150 nM. Consider `C=CC1C[C@]1(NC(=O)[C@@H]1C[C@@H](Oc2nccc3cc(OC)ccc23)CN1C(=O)[C@@H](NC(=O)OC(C)(C)C)C(C)(C)C)C(=O)NS(=O)(=O)N(C)C` (some centres unmarked) [Compound 17], for which the half-maximal inhibitory concentration (IC50) in test [1] was less than 150 nM. Besides, in test [2], the EC50 is 150 to 1500 nM.

Turning to `C=CC1C[C@]1(NC(=O)[C@@H]1C[C@@H](Oc2nccc3cc(OC)ccc23)CN1C(=O)[C@@H](NC(=O)OC(C)(C)C)C(C)(C)C)C(=O)NS(=O)(=O)N1CCCC1` (some centres unmarked) [Compound 18], the IC50 in test [1] was less than 150 nM. Further, the EC50 in test [2] was less than 150 nM.

With `C=CC1C[C@]1(NC(=O)[C@@H]1C[C@@H](Oc2nccc3cc(OC)ccc23)CN1C(=O)[C@@H](NC(=O)OC(C)(C)C)C(C)(C)C)C(=O)NS(=O)(=O)N(C)CC` (some centres unmarked) [Compound 19], in test [1], the half-maximal inhibitory concentration (IC50) is less than 150 nM. In test [2], the 50% effective concentration (EC50) is less than 150 nM.

In the case of `C=CC1C[C@]1(NC(=O)[C@@H]1C[C@@H](Oc2nccc3cc(OC)ccc23)CN1C(=O)[C@@H](NC(=O)OC(C)(C)C)C(C)(C)C)C(=O)NS(=O)(=O)N(C)c1ccccc1` (some centres unmarked) [Compound 20], the IC50 in test [1] is less than 150 nM. Further, in test [2], the concentration for a half-maximal effect (EC50) was less than 150 nM. As to `C=CC1C[C@]1(NC(=O)[C@@H]1C[C@@H](Oc2nccc3ccccc23)CN1C(=O)[C@@H](NC(=O)OC(C)(C)C)C(C)(C)C)C(=O)NS(=O)(=O)N(C)C(C)C` (some centres unmarked) [Compound 22], the 50% inhibitory concentration (IC50) in test [1] was 150 to 1500 nM.
